According to patent publication US8741897B2, “Glucocorticoid mimetics, methods of making them, pharmaceutical compositions and uses thereof” (Boehringer Ingelheim Pharmaceuticals Inc., priority 2003, dated 2014):

Assays:
[1] = target: T1, human glucocorticoid receptor (GR) complex (Homo sapiens, UniProt P04150); experiment: Glucocorticoid receptor competitive binding assay (fluorescence polarization, TAMRA-labeled dexamethasone probe); settings: compounds of Formula (IA)
T1 construct: made in house; host or cells: insect expression system (baculovirus lysate)
T1 sequence (P04150 1-777): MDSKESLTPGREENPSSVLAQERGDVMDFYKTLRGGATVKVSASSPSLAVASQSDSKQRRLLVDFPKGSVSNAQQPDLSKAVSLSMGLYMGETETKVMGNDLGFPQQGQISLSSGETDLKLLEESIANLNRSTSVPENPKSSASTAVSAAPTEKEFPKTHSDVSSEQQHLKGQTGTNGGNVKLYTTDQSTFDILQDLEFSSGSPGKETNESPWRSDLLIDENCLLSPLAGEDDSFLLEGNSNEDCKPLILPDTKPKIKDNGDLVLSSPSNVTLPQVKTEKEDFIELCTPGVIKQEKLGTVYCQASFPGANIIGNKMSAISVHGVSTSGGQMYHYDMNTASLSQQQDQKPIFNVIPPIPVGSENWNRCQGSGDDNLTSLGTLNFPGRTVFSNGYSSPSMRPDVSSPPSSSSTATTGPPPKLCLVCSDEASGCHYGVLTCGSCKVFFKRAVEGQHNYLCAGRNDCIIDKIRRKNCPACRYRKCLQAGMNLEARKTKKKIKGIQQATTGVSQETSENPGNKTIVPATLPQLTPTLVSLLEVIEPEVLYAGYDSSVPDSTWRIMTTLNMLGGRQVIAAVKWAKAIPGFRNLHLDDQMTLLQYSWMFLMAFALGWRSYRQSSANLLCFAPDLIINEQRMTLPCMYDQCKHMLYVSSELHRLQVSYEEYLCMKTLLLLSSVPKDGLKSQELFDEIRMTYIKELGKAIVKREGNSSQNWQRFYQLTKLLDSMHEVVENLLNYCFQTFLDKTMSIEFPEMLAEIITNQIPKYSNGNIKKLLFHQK
How it was run: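 Fluorescence-polarization competition against 15 nM TAMRA-dexamethasone (stock added to the mix) for human GR complex from baculovirus lysate diluted 1:170. Buffer: 10 mM TES, 50 mM KCl, 20 mM Na2MoO4, 1.5 mM EDTA, 0.04% CHAPS, 10% glycerol, 1 mM DTT, pH 7.4. IC50 from 4-parameter logistic fit.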

[2] = test system: glucocorticoid receptor function; experiment: one or more of the above assays (GR binding and glucocorticoid receptor cell assays: aromatase, IL-6, TAT, MMTV-Luc, IL-8, ICAM-Luc); type: cell-based; settings: assay not specified per compound

SMILES | activity in the GR binding assay [1] | activity as agonists of the glucocorticoid receptor function in one or more of the above assays [2]
COc1ccc(F)cc1C(C)(C)CC(O)(Cc1cc2cc(C(=O)NCC#N)ccc2[nH]1)C(F)(F)F (centres unmarked) [2-[4-(5-Fluoro-2-methoxyphenyl)-2-hydroxy-4-methyl-2-trifluoromethylpentyl]-1H-indole-5-carboxylic acid cyanomethylamide] | potent activity | potent agonists
COc1ccc(F)cc1C(C)(C)CC(O)(Cc1cc2cc(C(N)=O)ccc2[nH]1)C(F)(F)F (centres unmarked) [2-[4-(5-Fluoro-2-methoxyphenyl)-2-hydroxy-4-methyl-2-trifluoromethylpentyl]-1H-indole-5-carboxylic acid amide] | potent activity | potent agonists
Cc1cc(C#N)cc2[nH]c(CC(O)(CC(C)(C)c3cccc4c3OCC4)C(F)(F)F)cc12 (centres unmarked) [2-[4-(2,3-Dihydrobenzofuran-7-yl)-2-hydroxy-4-methyl-2-trifluoromethylpentyl]-4-methyl-1H-indole-6-carbonitrile] | potent activity | potent agonists
CC(C)(CC(O)(Cc1ccnc(Br)c1)C(F)(F)F)c1cc(F)ccc1O (centres unmarked) [2-[3-(2-Bromopyridin-4-ylmethyl)-4,4,4-trifluoro-3-hydroxy-1,1-dimethylbutyl]-4-fluorophenol] | potent activity | potent agonists
COc1ccc(F)cc1C(C)(C)CC(O)(Cc1cc(Cl)nc(Cl)c1C#N)C(F)(F)F (centres unmarked) [2,6-Dichloro-4-[4-(5-fluoro-2-methoxyphenyl)-2-hydroxy-4-methyl-2-trifluoromethylpentyl]nicotinonitrile] | potent activity | potent agonists
CC(C)(CC(O)(Cc1cc2ccccc2[nH]1)C(F)(F)F)c1cccc(F)c1 (centres unmarked) [1,1,1-Trifluoro-4-(3-fluorophenyl)-2-(1H-indol-2-ylmethyl)-4-methylpentan-2-ol] | potent activity | potent agonists
COc1ccc(F)cc1C(C)(C)CC(O)(Cc1cc2cc(C(F)(F)F)ncc2[nH]1)C(F)(F)F (centres unmarked) [1,1,1-Trifluoro-4-(5-fluoro-2-methoxyphenyl)-4-methyl-2-(5-trifluoromethyl-1H-pyrrolo[2,3-c]pyridin-2-ylmethyl)pentan-2-ol] | potent activity | potent agonists
Cc1c(CC(O)(CC(C)(C)c2cc(Cl)cc3c2OCC3)C(F)(F)F)[nH]c2cnccc12 (centres unmarked) [4-(5-Chloro-2,3-dihydrobenzofuran-7-yl)-1,1,1-trifluoro-4-methyl-2-(3-methyl-1H-pyrrolo[2,3-c]pyridin-2-ylmethyl)pentan-2-ol] | potent activity | potent agonists
Cc1cc2[nH]c(CC(O)(CC(C)(C)c3cc(F)ccc3C)C(F)(F)F)cc2cn1 (centres unmarked) [1,1,1-Trifluoro-4-(5-fluoro-2-methylphenyl)-4-methyl-2-(6-methyl-1H-pyrrolo[3,2-c]pyridin-2-ylmethyl)pentan-2-ol] | potent activity | potent agonists
COc1ccc(C)cc1C(C)(C)CC(O)(Cc1ccnc2ccccc12)C(F)(F)F (centres unmarked) [1,1,1-Trifluoro-4-(2-methoxy-5-methylphenyl)-4-methyl-2-quinolin-4-ylmethylpentan-2-ol] | potent activity | potent agonists
Cc1ccc(F)cc1C(C)(C)CC(O)(Cc1cc2cnccc2[nH]1)C(F)(F)F (centres unmarked) [1,1,1-Trifluoro-4-(5-fluoro-2-methylphenyl)-4-methyl-2-(1H-pyrrolo[3,2-c]pyridin-2-ylmethyl)pentan-2-ol] | potent activity | potent agonists
CC(C)(CC(O)(Cc1cc2cc(C(=O)N3CCOCC3)ccc2[nH]1)C(F)(F)F)c1cc(Br)cc2c1OCC2 (centres unmarked) [{2-[4-(5-Bromo-2,3-dihydrobenzofuran-7-yl)-2-hydroxy-4-methyl-2-trifluoromethylpentyl]-1H-indol-5-yl}morpholin-4-ylmethanone] | potent activity | potent agonists
COc1ccc(F)cc1C(C)(C)CC(O)(Cc1ccnc2cc(C)ccc12)C(F)(F)F (centres unmarked) [1,1,1-Trifluoro-4-(5-fluoro-2-methoxyphenyl)-4-methyl-2-(7-methylquinolin-4-ylmethyl)pentan-2-ol] | potent activity | potent agonists
COc1ccc(F)cc1C(C)(C)CC(O)(Cc1cc2cnc(C)cc2[nH]1)C(F)(F)F (centres unmarked) [1,1,1-Trifluoro-4-(5-fluoro-2-methoxyphenyl)-4-methyl-2-(6-methyl-1H-pyrrolo[3,2-c]pyridin-2-ylmethyl)pentan-2-ol] | potent activity | potent agonists
CC(C)(CC(O)(Cc1ccnc2ccccc12)C(F)(F)F)c1ccc(C(F)(F)F)cc1 (centres unmarked) [1,1,1-Trifluoro-4-methyl-2-quinolin-4-ylmethyl-4-(4-trifluoromethylphenyl)pentan-2-ol] | potent activity | potent agonists
CC(C)(CC(O)(Cc1cc(Cl)nc2ccc(Cl)cc12)C(F)(F)F)c1cc(F)ccc1O (centres unmarked) [2-[3-(2,6-Dichloroquinolin-4-ylmethyl)-4,4,4-trifluoro-3-hydroxy-1,1-dimethylbutyl]-4-fluorophenol] | potent activity | potent agonists
Cc1ccc(O)c(C(C)(C)CC(O)(Cc2cc3c(C)cc(C#N)cc3[nH]2)C(F)(F)F)c1 (centres unmarked) [2-[2-Hydroxy-4-(2-hydroxy-5-methylphenyl)-4-methyl-2-trifluoromethylpentyl]-4-methyl-1H-indole-6-carbonitrile] | potent activity | potent agonists
CCC(C)(CC(O)(Cc1ccnc2ccccc12)C(F)(F)F)c1ccccc1 (centres unmarked) [1,1,1-Trifluoro-4-methyl-4-phenyl-2-quinolin-4-ylmethylhexan-2-ol] | potent activity | potent agonists
Cc1ccc(F)cc1C(C)(C)CC(O)(Cc1[nH]c2cnccc2c1C)C(F)(F)F (centres unmarked) [1,1,1-Trifluoro-4-(5-fluoro-2-methylphenyl)-4-methyl-2-(3-methyl-1H-pyrrolo[2,3-c]pyridin-2-ylmethyl)pentan-2-ol] | potent activity | potent agonists
CSc1cc2c(c(C(C)(C)CC(O)(Cc3[nH]c4ccccc4c3C#N)C(F)(F)F)c1)OCC2 (centres unmarked) [2-[2-Hydroxy-4-methyl-4-(5-methylsulfanyl-2,3-dihydrobenzofuran-7-yl)-2-trifluoromethylpentyl]-1H-indole-3-carbonitrile] | potent activity | potent agonists
Cc1cc(CC(O)(CC(C)(C)c2cc(F)ccc2C)C(F)(F)F)cc(C)n1 (centres unmarked) [2-(2,6-Dimethylpyridin-4-ylmethyl)-1,1,1-trifluoro-4-(5-fluoro-2-methylphenyl)-4-methylpentan-2-ol] | potent activity | potent agonists
Cc1c(CC(O)(CC(C)(C)c2cccc(F)c2)C(F)(F)F)[nH]c2ccccc12 (centres unmarked) [1,1,1-Trifluoro-4-(3-fluorophenyl)-4-methyl-2-(3-methyl-1H-indol-2-ylmethyl)pentan-2-ol] | potent activity | potent agonists
